PMC9098913, “In vitro reconstitution of Escherichia coli divisome activation” (Nature Communications, 2022)
Read-outs that look alike come from different tables or passages of the source.

Tests used:
FtsZ [1] = system: FtsZ;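 on effect on FtsZ pattern reorganization dynamics: FtsZ filament patterns imaged by time-lapse TIRF microscopy, one frame per 2 s, with ATP and GTP, Pearson correlation of first frame versus later frames, monoexponential fit, slower decay means persistent structures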
Protocol: (§1) Subsequently, the chamber was washed 6x with reaction buffer, to remove bulk peptide. To visualize colocalization with either FtsZ or FtsA, either a mix of FtsA and Alexa488-FtsZ or Cy3-FtsA and FtsZ was added. […] The time-lapse videos were recorded for 10 min after the addition, with one frame per 2 s.
Time-lapse videos were first intensity-corrected and contrast-enhanced to avoid bleaching effects and simplify subsequent analysis. To remove contributions of X–Y drift, the videos were processed with the Linear Stack Alignment with SIFT plugin. Proper alignment was checked with the 3TP align plugin (J. A. Parker; Beth Israel Deaconess Medical Center, Boston). Subsequently, regions of interest (ROIs) in the center of the stacks were chosen for colocalization analysis. The Pearson’s correlation coefficient (PCC) was quantified with the Image CorrelationJ 1o plugin. To extract information about the relative ratio of FtsZ/FtsA molecules (slope of linear regression), we also used the Image CorrelationJ 1o plugin. As an output, the plugin provides a scatterplot of FtsZ vs FtsA intensities, to which we fitted a linear slope y=k⋅x+d , where k is the slope and d the offset. The slope was used as an estimate for the ratio of FtsA molecules below FtsZ filaments.

FtsA/Z co-filaments = target: T1, FtsA/Z co-filaments (Escherichia coli, UniProt P0A9A6+P0ABH0, R286W); format: biochemical, E. coli; details: all concentrations of FtsA R286W
T1 construct: TwinStrep-SUMO (N, cleaved yes); made in house; host or cells: E. coli BL21
Protocol: By fitting an exponential function to the increase of the PCC with time, we were able to extract the corresponding recruitment rate (Fig. 2f, g).
as §1

FtsZ-FtsA WT filaments = target: T2, FtsZ-FtsA WT filaments (Escherichia coli, UniProt P0A9A6+P0ABH0); format: binding, E. coli; details: 0.2 µM FtsA WT, 1.25 µM FtsZ, […] Tris-NTA; p-value 0.03
T2 construct: TwinStrep-SUMO (N, cleaved yes); made in house; host or cells: E. coli BL21
From the text: Single molecule time lapses were acquired every 32 or 51 ms, with exposure times of 30 and 50 ms, respectively.
Single-molecule experiments with FtsNcytowere tracked using the TrackMate plugin from ImageJ[43]. Non-moving particles and short tracks (below 1 s) were filtered out and the data exported as.xml files. […] The packing coefficient is defined as the length of the trajectory in a short time window and the surface area that it occupies. […] This approach is adapted from Renner et al. and implemented here as an easy-to-use Python script. The packing coefficient is computed for each time point as:1 p=∑ii+n−1xi+1−xi^2−yi+1−yi^2/Si^2 Where xi,yi are the coordinates at time i, xi+1, yi+1 are the coordinates at time i+1, n is the length of the time window, and Si is the surface area of the convex hull of the trajectory segment between time points i and i+n. Periods of confinement are identified by setting a threshold corresponding to a certain confinement area size, since p scales with the size of the confinement area. Then it is possible to calculate the frequency and duration of confinement periods and to localize them in space. Each position will have a characteristic p, considering the behaviour of the following n positions. This approach overcomes the limitations of using MSD calculation, which overlooks transient confinement periods. […]

FtsZ [2] = system: FtsZ; remark: listed apart in the source;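 on effect on FtsZ pattern reorganization dynamics: FtsZ filament patterns imaged by time-lapse TIRF microscopy, one frame per 2 s, with ATP and GTP, Pearson correlation of first frame versus later frames, monoexponential fit, slower decay means persistent structures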
Protocol: as §1
Treadmilling dynamics, were quantified using an automated image analysis protocol previously developed by our group. To visualize colocalization of the co-treadmilling FtsZ & FtsA filaments, we used dual-colour videos obtained at an acquisition rate of one frame per 2 s. The two channels were aligned using FIJI’s 3TP align plugin. Both channels were then subjected to the image subtraction protocol and colocalization was measured as described above.

FtsZ [3] = details: either version of FtsA
Protocol: Additionally, the reaction chamber contained 4 mM ATP and 4 mM GTP, as well as a scavenging system to minimize photobleaching effects: 30 mM d-glucose, 0.050 mg ml^−1 Glucose Oxidase, 0.016 mg ml^−1 Catalase, 1 mM DTT and 1 mM Trolox. Prior addition of all components a corresponding buffer volume was removed from the chamber to obtain a total reaction volume of 100 µl. The dynamic protein pattern was monitored by time-lapse TIRF microscopy at one frame per 2 s and 50 ms exposure time.
To measure reorganization dynamics of FtsZ filaments, we used a temporal correlation analysis based on the Image CorrelationJ 1o plugin. We quantified the PCC between the first frame to subsequent frames with increasing time lag (∆t). The decrease in the PCC was plotted against ∆t to obtain autocorrelation curves. Slower decay indicates more persistent structures. The rates of decay were extracted by fitting monoexponential decay to the autocorrelation curves y=a⋅e^−b⋅t+k , where a is the starting point, b is the decay rate and k is the final offset. The half time of the monoexponential decay was calculated via the decay rate.

[4] = FtsA R286W, even at concentrations above 0.4 µM

T2 sequence (P0A9A6 whole entry): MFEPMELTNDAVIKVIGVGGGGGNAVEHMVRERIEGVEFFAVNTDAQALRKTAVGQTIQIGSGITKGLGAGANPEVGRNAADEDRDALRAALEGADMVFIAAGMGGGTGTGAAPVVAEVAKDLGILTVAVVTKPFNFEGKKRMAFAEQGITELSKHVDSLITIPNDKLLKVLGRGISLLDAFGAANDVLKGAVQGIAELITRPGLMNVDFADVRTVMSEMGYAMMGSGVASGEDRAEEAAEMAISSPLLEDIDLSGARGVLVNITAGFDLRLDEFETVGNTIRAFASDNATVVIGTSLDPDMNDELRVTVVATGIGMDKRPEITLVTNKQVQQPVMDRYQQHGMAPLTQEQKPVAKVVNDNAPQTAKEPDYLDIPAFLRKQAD
T2 sequence (P0ABH0 whole entry): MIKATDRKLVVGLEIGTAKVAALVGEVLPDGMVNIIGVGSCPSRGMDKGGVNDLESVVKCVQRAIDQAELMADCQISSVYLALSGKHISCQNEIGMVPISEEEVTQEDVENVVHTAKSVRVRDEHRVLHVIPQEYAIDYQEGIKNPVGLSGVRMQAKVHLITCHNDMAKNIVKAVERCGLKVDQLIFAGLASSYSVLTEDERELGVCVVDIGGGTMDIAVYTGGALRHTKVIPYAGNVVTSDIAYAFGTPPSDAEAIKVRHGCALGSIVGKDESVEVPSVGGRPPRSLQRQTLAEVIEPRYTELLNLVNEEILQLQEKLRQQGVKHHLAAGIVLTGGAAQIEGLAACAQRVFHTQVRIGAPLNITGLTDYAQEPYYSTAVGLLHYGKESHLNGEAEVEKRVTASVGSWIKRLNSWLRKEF
T1 sequence (P0A9A6 whole entry): as the sequence (P0A9A6 whole entry) above
T1 sequence (P0ABH0 whole entry R286W): as the sequence (P0ABH0 whole entry) above, with R286W counted along it

CSCC[C@H](NC(=O)[C@@H](N)CS)C(=O)N[C@@H](C)C(=O)N[C@@H](CCC(N)=O)C(=O)N[C@@H](CCCNC(=N)N)C(=O)N[C@@H](CC(=O)O)C(=O)N[C@@H](Cc1ccc(O)cc1)C(=O)N[C@H](C(=O)N[C@@H](CCCNC(=N)N)C(=O)N[C@@H](CCCNC(=N)N)C(=O)N[C@@H](CO)C(=O)N[C@@H](CCC(N)=O)C(=O)N1CCC[C@H]1C(=O)N[C@@H](C)C(=O)N1CCC[C@H]1C(=O)N[C@@H](CO)C(=O)N[C@@H](CCCNC(=N)N)C(=O)N[C@@H](CCCNC(=N)N)C(=O)N[C@@H](CCCCN)C(=O)N[C@@H](CCCCN)C(=O)N[C@@H](CO)C(=O)N[C@H](C(=O)N[C@@H](CO)C(=O)N[C@@H](CCCNC(=N)N)C(=O)N[C@@H](CCCCN)C(=O)N[C@@H](CCCCN)C(=O)N[C@@H](CCC(N)=O)C(=O)N[C@@H](CCCNC(=N)N)C(=O)N[C@@H](CC(N)=O)C(=O)N[C@@H](CC(C)C)C(=O)N1CCC[C@H]1C(=O)N[C@@H](C)C(=O)N[C@H](C(=O)N[C@@H](Cc1c[nH]cn1)C(=O)N[C@@H](Cc1c[nH]cn1)C(=O)N[C@@H](Cc1c[nH]cn1)C(=O)N[C@@H](Cc1c[nH]cn1)C(=O)N[C@@H](Cc1c[nH]cn1)C(=O)N[C@@H](Cc1c[nH]cn1)C(=O)O)C(C)C)[C@@H](C)O)C(C)C [FtsNcyto]
PCC FtsNcyto/FtsZ (FtsZ [1]; 0.4 µM FtsA R286W, […] Tris-NTA, 1.25 µM FtsZ, p-value 4.92 × 10^−4): 0.70 ± 0.02
PCC FtsNcyto/FtsZ (FtsZ [1]; 0.4 µM FtsA WT, […] Tris-NTA, 1.25 µM FtsZ, p-value 4.92 × 10^−4): 0.30 ± 0.05
PCC FtsNcyto/FtsZ (FtsZ [1]; [4]): > 0.6
FtsNcyto enrichment saturated within (FtsA/Z co-filaments): ≤ 1 min
frequency of transient confinement (FtsZ-FtsA WT filaments): 57.99 ± 7.29%
PCCdiff FtsNcyto/FtsZ (FtsZ [2]; 0.4 µM FtsA R286W, […] Tris-NTA, 1.25 µM FtsZ, p-value 3.79 × 10^−3): 0.47 ± 0.05
PCCdiff FtsNcyto/FtsZ (FtsZ [2]; 0.4 µM FtsA WT, […] Tris-NTA, 1.25 µM FtsZ, p-value 3.79 × 10^−3): 0.17 ± 0.04
PCCdiff FtsNcyto/FtsZ (FtsZ [2]; [4]): > 0.6
effect on FtsZ pattern reorganization dynamics (FtsZ [3]): significantly slows down
